According to patent publication US8673966B2, “ALDH-2 inhibitors in the treatment of addiction” (Gilead Sciences, Inc., priority 2011, dated 2014):
Where “and” joins values, the source holds several entries; their conditions need not be identical. Equal values may be shown once.

Assays:
Assay type in all cases: biochemical
hMAO-A = hMAO-A (Homo sapiens (Human), UniProt P21397); assay: MAO-A assay (luminogenic MAO substrate); conditions: microsome contained MAO-A, 160 uM substrate, 20 min pre-incubation; unit inferred
Sequence of hMAO-A (P21397 whole entry): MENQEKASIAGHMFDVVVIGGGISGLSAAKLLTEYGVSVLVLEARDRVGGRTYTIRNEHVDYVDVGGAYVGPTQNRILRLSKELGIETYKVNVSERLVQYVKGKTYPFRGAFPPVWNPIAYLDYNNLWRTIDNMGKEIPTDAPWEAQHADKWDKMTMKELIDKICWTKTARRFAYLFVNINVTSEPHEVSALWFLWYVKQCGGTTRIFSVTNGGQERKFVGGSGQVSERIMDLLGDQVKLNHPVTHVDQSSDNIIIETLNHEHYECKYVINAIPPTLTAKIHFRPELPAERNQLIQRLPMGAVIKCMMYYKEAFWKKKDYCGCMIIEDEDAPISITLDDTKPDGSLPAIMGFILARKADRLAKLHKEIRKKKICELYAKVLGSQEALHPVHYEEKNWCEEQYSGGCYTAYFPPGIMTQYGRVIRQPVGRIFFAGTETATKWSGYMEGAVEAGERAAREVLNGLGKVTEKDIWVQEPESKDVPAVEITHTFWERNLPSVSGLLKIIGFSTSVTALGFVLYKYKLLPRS
Experimental: (§1) MAO assays included luminogenic MAO substrate, reaction buffers, Luciferin Detection and the reconstitution buffer with esterase. Standard MAO reaction mixtures included microsome contained MAO-A (2 ug) or MAO-B (10 ug), 160 uM substrate for MAO-A or 16 uM substrate for MAO-B, MAO-A buffer (100 mM Hepes buffer, pH 7.5, 5% glycerol) or MAO-B buffer (100 mM Hepes, pH 7.5, 5% glycerol, 10% dimethyl sulfoxide) in a final volume of 30 ul. After 20 minutes of pre-incubation of the enzyme with compounds, the reaction was initiated by adding enzyme substrate and the reaction was allowed to proceed for 60 minutes. Reconstituted Luciferin Detection Reagent (30 ul) was then added is added to simultaneously stop the MAO reaction and convert the methyl ester derivative to luciferin and produce light. The amount of light produced is directly proportional to the activity of MAO. The mixtures were further incubated for 20 minutes and activity of the enzyme was determined using Perkin-Elmer Envision Reader.
(§2) Note: IC50 refers to the concentration of a compound that inhibits a reaction by 50%. In the case of competitive inhibition, IC50=2Ki when the substrate is present at the Km concentration, as per the relationship: Ki=IC50/[1+(substrate concentration/Km)].

hMAO-B = hMAO-B (Homo sapiens (Human), UniProt P27338); assay: MAO-B assay (luminogenic MAO substrate); conditions: microsome contained MAO-B, 16 uM substrate, 20 min pre-incubation; unit inferred
Sequence of hMAO-B (P27338 whole entry): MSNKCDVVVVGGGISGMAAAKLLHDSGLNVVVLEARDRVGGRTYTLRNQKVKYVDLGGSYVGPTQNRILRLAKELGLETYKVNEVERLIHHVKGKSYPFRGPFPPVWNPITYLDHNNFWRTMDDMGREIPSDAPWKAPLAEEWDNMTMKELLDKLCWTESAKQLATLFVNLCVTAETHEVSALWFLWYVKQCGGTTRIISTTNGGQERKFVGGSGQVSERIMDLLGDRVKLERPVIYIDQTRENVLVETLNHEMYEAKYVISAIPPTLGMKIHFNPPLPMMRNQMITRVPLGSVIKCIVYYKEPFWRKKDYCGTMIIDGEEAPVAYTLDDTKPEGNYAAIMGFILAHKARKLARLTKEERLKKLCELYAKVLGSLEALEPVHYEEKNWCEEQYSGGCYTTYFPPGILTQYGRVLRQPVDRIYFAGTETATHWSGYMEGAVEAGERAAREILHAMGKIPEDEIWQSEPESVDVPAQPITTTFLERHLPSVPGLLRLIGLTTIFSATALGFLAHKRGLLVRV
Experimental: as §1, §2

recombinant human ALDH2 = recombinant human ALDH2 (Homo sapiens (Human), UniProt P05091); assay: ALDH2 assay (NADH formation); conditions: 10 nM recombinant human ALDH2, 150 uM formaldehyde, 60 min pre-incubation; read-out: IC50 hALDH2
Sequence of recombinant human ALDH2 (P05091 18-517): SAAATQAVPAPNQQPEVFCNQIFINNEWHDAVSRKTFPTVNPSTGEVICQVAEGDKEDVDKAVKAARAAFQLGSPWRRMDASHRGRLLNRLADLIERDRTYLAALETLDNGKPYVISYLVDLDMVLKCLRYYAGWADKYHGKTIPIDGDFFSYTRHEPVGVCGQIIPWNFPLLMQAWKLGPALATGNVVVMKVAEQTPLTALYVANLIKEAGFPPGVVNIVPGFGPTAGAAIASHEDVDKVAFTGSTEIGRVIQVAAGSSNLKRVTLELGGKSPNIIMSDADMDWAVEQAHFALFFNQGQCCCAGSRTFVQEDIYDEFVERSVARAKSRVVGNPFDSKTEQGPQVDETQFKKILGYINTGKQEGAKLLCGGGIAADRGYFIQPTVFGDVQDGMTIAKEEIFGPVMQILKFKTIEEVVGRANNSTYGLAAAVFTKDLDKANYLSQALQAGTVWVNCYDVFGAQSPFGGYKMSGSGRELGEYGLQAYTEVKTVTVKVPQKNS
Experimental: Standard ALDH2 reaction mixtures contained 150 uM formaldehyde, 2.5 mM NAD^+, 10 mM MgCl2 and 10 nM recombinant human ALDH2 in 50 mM Hepes buffer, pH 7.4, 0.01% Tween 20 in a final volume of 50 ul using 384-well plates. After 60 min of pre-incubation of compound with ALDH2 and formaldehyde, the reaction was started by adding NAD+ and the reaction mixture was allowed to proceed for 90 minutes. Activity of the enzyme was determined by monitoring NADH formation using Perkin-Elmer Envision Reader with excitation and emission wavelengths set at 340 and 460 nm, respectively.
as §2

| IC50 (hMAO-A) [nM] | IC50 (hMAO-B) [nM] | IC50 (recombinant human ALDH2) | Compound |
| --- | --- | --- | --- |
| > 130000 | > 130000 | 15 nM | CS(=O)(=O)Nc1ccc(-c2coc3cc(C#CC4CN(C(=O)CO)C4)ccc3c2=O)cc1 [N-(4-(7-((1-(2-hydroxyacetyl)azetidin-3-yl)ethynyl)-4-oxo-4H-chromen-3-yl)phenyl)methanesulfonamide] |
| > 130000 | > 130000 | 47 nM | COCC#Cc1ccc2c(=O)c(-c3ccc(NS(C)(=O)=O)cc3)coc2c1 [N-(4-(7-(3-methoxyprop-1-ynyl)-4-oxo-4H-chromen-3-yl)phenyl)methanesulfonamide] |
| > 130000 | > 130000 | 7 nM | CC(C)n1cncc1C#Cc1ccc2c(=O)c(-c3ccc(NS(C)(=O)=O)cc3)coc2c1 [N-(4-(7-((1-isopropyl-1H-imidazol-5-yl)ethynyl)-4-oxo-4H-chromen-3-yl)phenyl)methanesulfonamide] |
| > 130000 | > 130000 | 6 nM | CC1(C(=O)N2CC(C#Cc3ccc4c(=O)c(-c5ccc(NS(C)(=O)=O)cc5)coc4c3)C2)CC1 [N-(4-(7-((1-(1-methylcyclopropanecarbonyl)-azetidin-3-yl)ethynyl)-4-oxo-4H-chromen-3-yl)phenyl)methanesulfonamide] |
| > 91000 | > 91000 | 2180 nM | CC(C)(O)C#Cc1ccc2c(=O)c(-c3ccc(NS(C)(=O)=O)cc3)coc2c1 [N-(4-(7-(3-hydroxy-3-methylbut-1-ynyl)-4-oxo-4H-chromen-3-yl)phenyl)methanesulfonamide] |
| > 130000 | > 130000 | 6 nM | CC(C)(C)OC(=O)NC1(C(=O)N2CC(C#Cc3ccc4c(=O)c(-c5ccc(NS(C)(=O)=O)cc5)coc4c3)C2)CCC1 [tert-butyl 1-(3-((3-(4-(methylsulfonamido)-phenyl)-4-oxo-4H-chromen-7-yl)ethynyl)azetidine-1-carbonyl)-cyclobutylcarbamate] |
| > 130000 | > 130000 | 109 nM | CC(C)CN1CC(C#Cc2ccc3c(=O)c(-c4ccc(NS(C)(=O)=O)cc4)coc3c2)C1 [N-(4-(7-((1-isobutylazetidin-3-yl)ethynyl)-4-oxo-4H-chromen-3-yl)phenyl)methanesulfonamide] |
| > 130000 | > 130000 | 16 nM | CC(C)(O)C(=O)N1CC(C#Cc2ccc3c(=O)c(-c4ccc(NS(C)(=O)=O)cc4)coc3c2)C1 [N-(4-(7-((1-(2-hydroxy-2-methylpropanoyl)-azetidin-3-yl)ethynyl)-4-oxo-4H-chromen-3-yl)phenyl)methanesulfonamide] |
| > 130000 | > 130000 | 5 nM | CC1(O)CC(C(=O)N2CC(C#Cc3ccc4c(=O)c(-c5ccc(NS(C)(=O)=O)cc5)coc4c3)C2)C1 (stereo not drawn) [N-(4-(7-((1-(3-hydroxy-3-methylcyclobutane-carbonyl)azetidin-3-yl)ethynyl)-4-oxo-4H-chromen-3-yl)phenyl)methanesulfonamide] |
| > 130000 | > 130000 | 96 nM | COCC#Cc1ccc2c(=O)c(-c3ccc(NS(=O)(=O)C4CC4)cc3)coc2c1 [N-(4-(7-(3-methoxyprop-1-ynyl)-4-oxo-4H-chromen-3-yl)phenyl)cyclopropanesulfonamide] |
| > 130000 | > 130000 | 386 nM and 156 nM | CS(=O)(=O)Nc1ccc(-c2coc3cc(C#CC4(O)CCCC4)ccc3c2=O)cc1 [N-(4-(7-((1-hydroxycyclopentyl)ethynyl)-4-oxo-4H-chromen-3-yl)phenyl)methanesulfonamide] |
| > 130000 | > 130000 | 90 nM | CS(=O)(=O)Nc1ccc(-c2coc3cc(C#Cc4ccccn4)ccc3c2=O)cc1 [N-(4-(4-oxo-7-(pyridin-2-ylethynyl)-4H-chromen-3-yl)phenyl)methanesulfonamide] |
| > 130000 | > 130000 | 6 nM | CC1(C(=O)N2CC(C#Cc3ccc4c(=O)c(-c5ccc(NS(C)(=O)=O)cc5)coc4c3)C2)COC1 [N-(4-(7-((1-(3-methyloxetane-3-carbonyl)azetidin-3-yl)ethynyl)-4-oxo-4H-chromen-3-yl)phenyl)methanesulfonamide] |
| > 130000 | > 130000 | 1710 nM | CS(=O)(=O)Nc1ccc(-c2coc3cc(C#CC4(O)CCCCC4)ccc3c2=O)cc1 [N-(4-(7-((1-hydroxycyclohexyl)ethynyl)-4-oxo-4H-chromen-3-yl)phenyl)methanesulfonamide] |
| > 130000 | > 130000 | 8 nM | COCCC(=O)N1CC(C#Cc2ccc3c(=O)c(-c4ccc(NS(C)(=O)=O)cc4)coc3c2)C1 [N-(4-(7-((1-(3-methoxypropanoyl)azetidin-3-yl)ethynyl)-4-oxo-4H-chromen-3-yl)phenyl)methanesulfonamide] |
| > 130000 | > 130000 | 35 nM | CN1CCC(C(=O)N2CC(C#Cc3ccc4c(=O)c(-c5ccc(NS(C)(=O)=O)cc5)coc4c3)C2)CC1 [N-(4-(7-((1-(1-methylpiperidine-4-carbonyl)azetidin-3-yl)ethynyl)-4-oxo-4H-chromen-3-yl)phenyl)methanesulfonamide] |
| > 130000 | > 130000 | 15 nM | CC(O)C(=O)N1CC(C#Cc2ccc3c(=O)c(-c4ccc(NS(C)(=O)=O)cc4)coc3c2)C1 (stereo not drawn) [N-(4-(7-((1-(2-hydroxypropanoyl)azetidin-3-yl)ethynyl)-4-oxo-4H-chromen-3-yl)phenyl)methanesulfonamide] |
| > 110000 | > 130000 | 174 nM | CS(=O)(=O)Nc1ccc(-c2coc3cc(C#CC4CCNCC4)ccc3c2=O)cc1 [N-(4-(4-oxo-7-(piperidin-4-ylethynyl)-4H-chromen-3-yl)phenyl)methanesulfonamide] |
| > 130000 | 365 | < 4.9 nM | Cn1cncc1C#Cc1ccc2c(=O)c(-c3ccc(NS(C)(=O)=O)cc3)coc2c1 [N-(4-(7-((1-methyl-1H-imidazol-5-yl)ethynyl)-4-oxo-4H-chromen-3-yl)phenyl)methanesulfonamide] |
| > 130000 | > 130000 | 15 nM | Cc1ncc(C#Cc2ccc3c(=O)c(-c4ccc(NS(C)(=O)=O)cc4)coc3c2)n1C [N-(4-(7-((1,2-dimethyl-1H-imidazol-5-yl)ethynyl)-4-oxo-4H-chromen-3-yl)phenyl)methanesulfonamide] |
| > 130000 | > 130000 | 21 nM | CS(=O)(=O)Nc1ccc(-c2coc3cc(C#Cc4cccnc4)ccc3c2=O)cc1 [N-(4-(4-oxo-7-(pyridin-3-ylethynyl)-4H-chromen-3-yl)phenyl)methanesulfonamide] |
| > 130000 | > 94400 | 266 nM | CS(=O)(=O)Nc1ccc(-c2coc3cc(C#CC4CNC4)ccc3c2=O)cc1 [N-(4-(7-(azetidin-3-ylethynyl)-4-oxo-4H-chromen-3-yl)phenyl)methanesulfonamide] |
| > 130000 | > 130000 | 6 nM | CS(=O)(=O)Nc1ccc(-c2coc3cc(C#CC4CN(C(=O)C5CC(F)(F)C5)C4)ccc3c2=O)cc1 [N-(4-(7-((1-(3,3-difluorocyclobutanecarbonyl)azetidin-3-yl)ethynyl)-4-oxo-4H-chromen-3-yl)phenyl)methanesulfonamide] |
| > 130000 | > 130000 | 6.5 nM | CS(=O)(=O)Nc1ccc(-c2coc3cc(C#CC4CCN(C(=O)C5CC5)CC4)ccc3c2=O)cc1 [N-(4-(7-((1-(cyclopropanecarbonyl)piperidin-4-yl)ethynyl)-4-oxo-4H-chromen-3-yl)phenyl)methanesulfonamide] |
| > 13000 | > 13000 | 329 nM | CS(=O)(=O)Nc1ccc(-c2coc3cc(C#Cc4ccccc4)ccc3c2=O)cc1 [N-(4-(4-oxo-7-(phenylethynyl)-4H-chromen-3-yl)phenyl)methanesulfonamide] |
| > 130000 | > 130000 | 2.3 nM | CN(C(=O)OC(C)(C)C)C1(C(=O)N2CC(C#Cc3ccc4c(=O)c(-c5ccc(NS(C)(=O)=O)cc5)coc4c3)C2)CC1 [tert-butyl (1-(3-((3-(4-(methylsulfonamido)-phenyl)-4-oxo-4H-chromen-7-yl)ethynyl)azetidine-1-carbonyl)cyclopropyl)-methylcarbamate] |
| > 130000 | > 130000 | 5 nM | CS(=O)(=O)Nc1ccc(-c2coc3cc(C#CC4CN(C(=O)C5CC5(F)F)C4)ccc3c2=O)cc1 (stereo not drawn) [N-(4-(7-((1-(2,2-difluorocyclopropane-carbonyl)azetidin-3-yl)ethynyl)-4-oxo-4H-chromen-3-yl)phenyl)methanesulfonamide] |
